# Data published in patent US11666640B2, “Glucose oxidase compositions as a neonate anticonvulsant” (PENN STATE RESEARCH FOUNDATION, priority 2018, dated 2023).
# Entries after “also recorded” stand apart in the source; their conditions may differ.
# How the values were obtained:
# [1] = tested on: cultured cortical neurons; assay: Epileptiform burst activity in cultured cortical neurons (whole-cell patch-clamp); format: cell-based, mouse
# Experimental: Mouse cortical neurons were prepared from newborn C57BL/6 mice as previously described. Qi et al., “Cyclothiazide induces robust epileptiform activity in rat hippocampal neurons both in vitro and in vivo” The Journal Of Physiology 571:605-618 (2006). Briefly, the newborn mouse cerebral cortices were dissected out in ice-cold HEPES-buffered saline solution, washed and digested with 0.05% trypsin-EDTA at 37° C. for 20 min. After deactivation of trypsin with serum-containing medium, cells were centrifuged, resuspended, and seeded on a monolayer of cortical astrocytes at a density of 10,000 cells/cm^2 in 24-well plates. The neuronal culture medium contained MEM (500 ml, Invitrogen), 5% fetal bovine serum (Atlanta Biologicals), 10 ml B-27 supplement (Invitrogen), 100 mg NaHCO3, 2 mM Glutamax (Invitrogen), and 25 units/ml penicillin & streptomycin. AraC (4 μM, Sigma) was added to inhibit the excessive proliferation of astrocytes. Cell cultures were maintained in a 5% CO2-humidified incubator at 37° C. for 14-21 days.
# The cultured neurons were placed in the recording chamber with continuous perfusion of the bath solution consisting of (mM): 128 NaCl, 10 Glucose, 25 HEPES, 5 KCl, 2 CaCl2, 1 MgSO4, pH 7.3 adjusted with NaOH, and osmolarity ˜300 mOsm. For recording spontaneous firing under current clamp mode, pipettes were filled with an internal solution containing (in mM): 125 K-gluconate, 5 Na-phosphocreatine, 5 EGTA, 10 KCl, 10 HEPES, 4 Mg-ATP, 0.3 Na-GTP, 280-290 mOsm, pH 7.3 adjusted with KOH. Epileptiform activity in cultured neurons was induced either by 10 μM CTZ for 24 h, or 1 μM KA for 2 h, or 50 μM 4-AP for 2 h. The burst activity was defined as previously described. Qi et al., “Cyclothiazide induces robust epileptiform activity in rat hippocampal neurons both in vitro and in vivo” The Journal Of Physiology 571:605-618 (2006). In brief, at least five consecutive action potentials overlaying on top of the large depolarization shift (≥10 mV depolarization and ≥300 ms in duration).
# [2] = tested on: Cl− channels; assay: Cl− current recording in cultured cortical neurons; format: cell-based, mouse; settings: 10 mM NaGcA
# [3] = tested on: hippocampal slices; assay: Field potential recording of epileptiform activity in hippocampal slices (CA3 pyramidal layer); format: cell-based, mouse
# [4] = tested on: KA-induced epileptic burst activities; assay: KA-induced epileptic burst activity in adult mice, EEG recording; format: in vivo, mouse; settings: KA 10 mg/kg i.p., NaGcA 2 g/kg i.p., sodium salt
# Experimental: To test the in vivo anti-epilepsy effects of gluconate in neonatal and adult rodents, P8-12 Sprague-Dawley rats or 2-month old male C57BL/6 mice were deeply anesthetized with pentobarbital sodium (50 mg/kg for neonatal rat and 100 mg/kg for adult mice, intraperitoneal injection). Two stainless steel screws (1 mm in diameter) were inserted in the skull above the cortex as EEG recording electrodes, one ground electrode as well as one reference electrode were located +1.8 mm anterior to bregma, ±0.5 mm lateral to the midline, and 1 mm below the cortical surface. All electrodes were attached to a micro-connector and fixed onto the skull with dental cement. After surgery, neonatal rats were returned to their mothers and allowed to recover for 2 days prior to subsequent EEG recording. The adult mice were single housed in order to prevent damage of the implanted electrodes and allowed to recover at least 5 days before EEG recording.
# [5] = tested on: PTZ-induced seizure behavior; assay: Seizure behavior test (Racine score) after PTZ; format: in vivo, mouse; settings: PTZ 50 mg/kg i.p., adult mice
# Experimental: Male mice were divided into three groups: vehicle control group (saline, n=9), D-gluconic acid sodium at 1 g/kg group (n=10), and D-gluconic acid sodium at 2 g/kg group (n=11). PTZ (50 mg/kg) was intraperitoneally administered 1 hr after drug treatment. After PTZ injection, the behavior was monitored and observed for 1 hr. The seizure behavior was classified according to Racine Score: stage 0, no response; stage 1, facial twitching; stage 2, nod; stage 3, forelimb clonic, tail upright; stage 4, stand with forelimbs clonic; stage 5, stand and fall, jump, general clonic seizure, general clonic and tonic seizure or death. Racine et al., “Modification of seizure activity by electrical stimulation. 3. Mechanisms” Electroencephalogr Clin Neurophysiol 32:295-299 (1972).
# [6] = tested on: GABAA-R current; assay: GABAA-R current induced by isoguvacine before and after membrane depolarization (gramicidin-perforated recording); format: cell-based, mouse; settings: isoguvacine 100 μM; depolarization 40 mV, 10 s; NaGcA 20 mM
# Experimental: To investigate the effect of such long-lasting epileptiform bursts on GABA function, gramicidin-perforated whole-cell recordings were performed to keep the intracellular Cl− intact in neonatal animals. GABAA receptor (GABAA-R) currents induced by the receptor agonist isoguvacine (100 μM, 50 ms) before and after a membrane-depolarizing shift (40 mV for 10 s) that mimics the epileptiform burst activity. […] FIGS. 16B and 16C.
# [7] = tested on: KA induced neonatal seizure; assay: KA-induced neonatal seizure, in vivo EEG recording; settings: NaGcA 2 g/kg i.p. about 1 hr after KA, P10-12 rat; sodium salt
# [8] = 0 Mg2+ aCSF, WT slices P8-12 pre-treated with 20 mM NaGcA
smiles,measurement,setting,value
"O=C([O-])[C@H](O)[C@@H](O)[C@H](O)[C@H](O)CO.[Na+] [NaGcA, D-gluconic acid sodium salt]",KA-induced epileptiform burst activity,"[1]; 1 μM KA for 2 hrs, 10 mM NaGcA, sodium salt",greatly suppressed; also recorded: dramatically suppressed
same,neurons showing epileptiform activity after CTZ co-treatment,"[1]; 10 μM CTZ together with 10 mM NaGcA, 3 out of 17 neurons",18%
same,4-AP-induced epileptiform activity,"[1]; 50 μM 4-AP for 2 hrs, 10 mM NaGcA, sodium salt",completely blocked; also recorded: obviously suppressed
same,CTZ-induced epileptiform burst activity,"[1]; 10 mM NaGcA, acute application",completely blocked
same,spontaneous epileptiform activity (burst action potentials),"[1]; 5-20 mM NaGcA in bath solution (FIG. 1A: 20 mM), sodium salt",inhibited spontaneous epileptiform activity; also recorded: stopped immediately
same,induction of epileptiform activity by CTZ,"[1]; co-application of 10 μM CTZ and 10 mM NaGcA during induction, sodium salt",great reduction; also recorded: lack of burst activity
same,average frequency and duration of epileptiform bursts,[1]; neurons co-treated with CTZ and NaGcA (5 and 10 mM),significantly reduced
same,Cl− currents,[2]; recorded at +90 mV,499±89 pA
same,Cl− currents (inhibition),[2]; sodium salt,significantly decreased; also recorded: significant NaGcA inhibition
same,reduction of average power of epileptic activity,"[3]; 0 Mg2+ aCSF, 20 mM NaGcA, P6-8",59.6±4.3%
same,reduction of average power of epileptic activity,"[3]; 0 Mg2+ aCSF, 20 mM NaGcA, P10-12",62.1±3.8%
same,reduction of average power of epileptic activity,"[3]; 0 Mg2+ aCSF, 20 mM NaGcA, P21-33",23.8±4.1%
same,burst latency,[3]; [8],significantly prolonged
same,total burst activity,[3]; [8],significantly reduced
same,epileptic activity induced by 4-AP,"[3]; 50 μM 4-AP, neonatal slices, 20 mM NaGcA, sodium salt",significantly reduced; also recorded: attenuated
same,"epileptiform activity induced by 0 Mg2+ aCSF, neonatal slices","[3]; 20 mM NaGcA, P6-12, sodium salt",strong inhibition; also recorded: strong efficacy; also recorded: dramatically reduced; also recorded: potent anti-epileptic effect; also recorded: inhibited
same,"epileptiform activity induced by 0 Mg2+ aCSF, older animals","[3]; 20 mM NaGcA, P21-33 (P26), sodium salt",modest effect; also recorded: much less inhibition; also recorded: much smaller; also recorded: moderate anti-epileptic discharges effect; also recorded: less effect
same,reduction of the power amplitude,"[3]; 4-AP (50 μM) model, neonatal slices, 20 mM NaGcA",70.2±5.3%
same,reduction of the power amplitude,"[3]; high K+ (8.5 mM) model, neonatal slices, 20 mM NaGcA",70.8±4.9%
same,epileptic burst activity in high K+ model,"[3]; high K+ aCSF (8.5 mM), neonatal slices, 20 mM NaGcA, sodium salt",remarkably suppressed; also recorded: blocked; also recorded: dramatically reduced
same,KA-induced epileptic burst activities / EEG power in adult animals,[4]; listed as gluconate,less inhibition
same,KA-induced epileptic burst activities / EEG power in adult animals,[4],modest effect; also recorded: modestly inhibited
same,behavioral seizure score,[5],mild inhibitory effect
same,latency of seizure behavior (Racine score 3 and above),[5],dose-dependently prolonged
same,depolarization-induced enhancement of GABAA-R current,[6],strongly inhibited
same,stable epileptic activity induced by KA (acute effect),[7],gradually reduced; also recorded: significantly reduced; also recorded: still suppressed seizure activity
